# Assay results as given in PMC5131364, “Pharmacologic modulation of RORγt translates to efficacy in preclinical and translational models of psoriasis and inflammatory arthritis” (Scientific Reports, 2016).
# What was measured:
# [1] = system: IL-23-induced psoriasis-like ear skin inflammation in C57BL/6N mice; experiment: IL-23-induced skin inflammation in mice; type: in vivo, mouse; conditions: for reduction of IL-17A-producing total CD3+ T cells / reduction of IL-17A-producing γδ+ T cells: 30 mg/kg BID oral
# [2] = system: human γδ+ T cells in PBMCs; experiment: Human γδ+ T cell in vitro activation; type: cell-based; conditions: 168 h, IL-1β, IL-23 and IPP, 7 days, average, read-out: inhibition of the IL-17A+ γδ+ T cell population
# From the text: The following antibodies (anti-mouse or anti-human) were purchased from BD Biosciences (San Diego, CA) or eBioscience (San Diego, CA): anti-CD3-FITC (mouse 17A2 and human SK7), anti-CD4-allophycocyanin (APC), anti-CD4-PerCp, anti-CD4-FITC, anti-CD4-PE (mouse GK1.5 and human SK3), anti-CD44-PerCp (mouse IM7), anti-γδ TCR-FITC, anti-γδ TCR-PE (mouse GL3 and human B1), anti-CD62L-FITC (mouse MEL-14 and human SK11), anti-CD45RO-APC (human UCHL1), anti-CCR6-PE (human 11A9), anti-CD45-PerCp (mouse 30-F11). Human or mouse anti-IFNγ (mouse XMG1.2 and human 4S.B3), anti-TNFα (mouse MP6-XT22 and human MAB11), anti-IL-17A (mouse eBio17B7 and human eBio64DEC17), anti-IL-22 (mouse 1H8PWSR and human 22URTI), and anti-Foxp3 (mouse FJK-16s and human 36A/E7), all PE or APC conjugated, were purchased from eBioscience (San Diego, CA). Human and mouse APC conjugated CD1d tetramers pre-loaded with alpha-GalCer and negative controls were obtained from ProImmune. […] Cells were stained with fluorescence-labeled antibodies for surface marker, then fixed/permeabilized (eBioscience) and stained with antibodies for intracellular cytokines. […] The data were acquired on a FACS Calibur (BD Bioscience) and analyzed using FlowJo software (Tree Star, San Carlos, CA).
# Human γδ^+ T cells were analyzed only through flow cytometry. […]
compound,measurement,setting,value
COc1nc2ccc([C@@](O)(c3ccc(C)nc3C)c3cnnn3C)cc2c(Cl)c1Cc1ccc(C(F)(F)F)cc1 [JNJ-54271074],"skin inflammation (total skin histology scores, abscesses, acanthosis)","[1]; 3, 10, 30 and 60 mg/kg BID oral, 7 days, dose-dependent",decreased skin inflammation
same,"ear mRNA expression of IL-17A, IL-22 and TNFα","[1]; 30 and 60 mg/kg, did not reach statistical significance",suppressed
same,reduction of IL-17A-producing total CD3+ T cells,[1]; DLNs,71%
same,reduction of IL-17A-producing γδ+ T cells,[1]; DLNs,43%
same,"FOXP3+ CD4+ T cells populations, vehicle vs compound treated groups","[1]; ear skin and DLNs, 30 mg/kg BID",very similar
same,reduction of IL-17A-producing total CD3+ T cells,[1]; ear skin,40%
same,reduction of IL-17A-producing γδ+ T cells,[1]; ear skin,60%
same,"ear mRNA expression of IL-17F, IFNγ and IL-6","[1]; oral BID, 7 days",significantly inhibited
same,inhibition at 1 µM,[2],56%
